Where two headings read alike, the source gives them in different places.
Experiments:
Format in all cases: in vivo, human
Herpes simplex = test system: Herpes simplex
Description: (§1) The method of the invention has been carried out with respect to a number of skin disorders. The patients were treated with one of two peptides, each at a concentration of 50 μg/gr cream (unless otherwise indicated):
(§2) The cream was manufactured by Amiga LTD, Israel, and contains the following components:
5. A person suffered for many years from Herpes simplex on the neck, with no relief from commercial remedies. ZEP3 was applied topically once a day to the lesions. • Results: relief in itching and skin rash within 10-20 min.
6. person two was diagnosed with Herpes simplex.
7. person one was diagnosed with Herpes simplex.
8. person four suffered from Herpes simplex from childhood.
9. A person suffered from Herpes simplex lesions on the lips and face. […] 1-2 applications cause the lesions to disappear.
10. A person suffered from Herpes simplex on the lips, mainly when under pressure. […] The blisters disappeared after 24 hours.
11. A person suffered from Herpes simplex on the lips. ZEP3 (500 μg/gr cream) was topically applied several times during the day on the wound. • Results: the person felt relief after several minutes. The itching and redness lessened immediately and the wound disappeared after 36 hours.
12. 7 subjects suffering from Herpes simplex were treated with ZEP3.
13. A person suffered from Herpes simplex lesions on the lips.
14. A person has a festering Herpes simplex lesion. Generally, 10 days are required for recuperation.
15. A person suffered intermittingly from Herpes simplex on the lips, with blisters.

rash = test system: rash
Description: as §1, §2
1. A rash appeared on the wrist of person two, apparently as an allergic response to a watch band. Large red spots appeared around the wrist.
2. A rash appeared in the underarm area of a person, apparently due to sweat and rubbing of the bra strap. […] F. Psoriasis

Herpes zoster = details: person, lesions with skin edema on mid back; 50 μg/gr cream, applied 4-5 times
Description: as §1, §2
1. A person was diagnosed with Herpes zoster (shingles), which appeared as a painful, circumferential rash in the abdominal area. The patient had been on antibiotics, with no improvement.
2. A person was diagnosed with Herpes zoster, which appeared as painful lesions with skin edema on the mid back area, appearing several times a year. […] Decrease in the skin rash and the degree of the sore and swelling and a shortening of the time of recovery (healing).

flea bites = test system: flea bites
Description: as §1, §2
1. person two was bitten by fleas on various occasions, resulting in an itching sensation. […] The ointment was reapplied after 6 hours.
2. person one who is very sensitive to flea bites was bitten by fleas, resulting in an itching sensation. […] The ointment should be reapplied after 12 hours.

bee stings = test system: bee stings
Description: as §1, §2
3. A person was stung by a bee.
4. person four was stung by bees on both hands.
5. person three was stung by bees on both hands.

radiation burns = test system: radiation burns
Description: as §1, §2
4. A person with breast cancer received radiation treatment. The person suffered from radiation burns in a large skin area with blisters and open wounds. ZEP4 was applied directly to the wounds over a period of 12 days, 1-2 times per day. • Results: an immediate (˜1 minute) ease in the itching and burning sensation.
7. person two with breast cancer after mastectomy received radiation treatment. The person suffered from severe radiation burns.

mosquito bites = details: two males and four females, 30-57 years old; (500 μg/gr cream) as needed
Description: as §1, §2
8. males and four females suffered from mosquito bites. […]
9. 3 subjects suffering from mosquito bites were treated with ZEP3.

itching = details: person
Description: as §1, §2
1. A person suffered from a strong itching sensation on the skin all over the body for no apparent reason.
2. A person suffered from a red rash and itching sensation on their breast. ZEP4 (500 μg/gr cream) was applied twice in a period of 2 hours. • Results: relief from itching within 10 minutes.
3. A person suffered from a strong itching sensation in the lower limbs which sometimes spread to the abdomen and back. […] I. Skin Infection

skin infection = details: person two, wrist infection, allergic reaction to watch band; 50 μg/gr cream several times a day
Description: as §1, §2
1. person two suffered from an infection on the wrist of the left hand, apparently an allergic reaction to a watch band. Large spots appeared around the wrist accompanied by redness.
2. person three suffered from an infection on the wrist of the left hand, apparently an allergic reaction to a watch band. Large spots appeared around the wrist accompanied by redness and itching.
3. 2 cases of infected skin wounds.

psoriasis = details: person
Description: as §1, §2
1. A person suffered from intermittent psoriasis on their head over many years. […] The patient believes that the frequency of the outbreaks has been reduced.
2. A person suffered from psoriasis on the hands. […] The patient believes that a 20% improvement has occurred over 2 weeks.
3. A person suffered from psoriasis in the anus.
4. A person suffered from extensive psoriasis at various locations. ZEP3 (500 μg/gr cream) was applied to the sores as needed. • Results: the itching ceased within 12 hours.
5. A person suffered from chronic psoriasis on the elbow.
6. A person suffered from severe psoriasis at various locations. They regularly went for treatments to the Dead Sea in Israel.

burns = test system: burns
Description: as §1, §2
1. A person was lightly burned on the back of the hand which touched a very hot object. ZEP4 was immediately applied to the burn site. • Results: the burn mark disappeared within 1 hour. No additional treatments were necessary.
2. A person was severely burned by boiling water on the palm of the hand. […] At the end of 2 weeks there was no sign of the burn, nor thereafter.
3. person two was lightly burned on their finger from boiling oil. […] No further treatments were necessary.
5. A person was burnt on their hand from an oven. […] The burn took on a light brown color.
6. 4 light burn cases, three from touching a hot surface and one from a chemical substance in a laboratory, were treated with ZEP3.
8. person three with irritated skin on the hand due to the rubbing of a watch band. The irritated skin came into contact with a chemical substance (used as a disinfectant). A severe redness developed similar to a burn, and a strong itching feeing. […] D. Oral Cavity

[1] = person one, 50 μg/gr cream several times
[2] = person two, 50 μg/gr cream several times
[3] = person, lips, 50 μg/gr cream several times a day at onset of pricking sensation
[4] = person, breast cancer radiation burns with blisters and open wounds, 50 μg/gr cream 1-2 times per day for 12 days
[5] = red rash and itching on breast, 500 μg/gr cream twice in 2 hours
[6] = person, severe boiling water burn on palm, 50 μg/gr cream immediately and every day for 2 weeks

Substance: pGLU-ASN-TRP-THR [ZEP4]
- clinical outcome as compared to treatment with Zovirax® (Herpes simplex; person four, 50 μg/gr cream several times): Rapid drying of the lesion, shrinking of swelling and swift conclusion of the outbreak
- clinical outcome (Herpes simplex; [1]): rapid drying of the lesion, as well as shortened scab formation
- time to reduction in the stinging/itching feeling (Herpes simplex; [1]): 10 to 20 min
- clinical outcome (Herpes simplex; [2]): the development of the lesion was stopped, scab formation began and the stinging/itching feeling disappeared
- scab formation as compared to treatment with Zovirax® (Herpes simplex; [2]): shortened
- clinical outcome (Herpes simplex; [3]): immediate reduction in the pricking sensation
- time until blisters disappeared (Herpes simplex; [3]): 24 h
- clinical outcome (Herpes simplex; person, lips, 200 μg/gr cream at onset of pricking sensation or lesions): immediate relief; the disease did not develop further
- clinical outcome (rash; person two, wrist rash, allergic response to watch band, 50 μg/gr cream several times a day): a reduction in the redness and in the diameter of the spots
- clinical outcome (rash; person, underarm rash, 50 μg/gr cream twice a day for three days): the redness began to decrease shortly after treatment, and after a few days completely disappeared
- clinical outcome (Herpes zoster): reduced skin edema and an increase in the intervals between attacks. Decrease in the skin rash and the degree of the sore and swelling and a shortening of the time of recovery (healing)
- clinical outcome (flea bites; person one very sensitive to flea bites, 50 μg/gr cream): almost immediate cessation of the itching sensation
- clinical outcome (flea bites; person two, 50 μg/gr cream several times to bite location): immediate cessation of the itching sensation
- clinical outcome (bee stings; person four, both hands stung, 1000 μg/gr cream once to one hand, about 10 minutes after sting): the swelling shrunk and the redness decreased to an identical degree on each hand
- clinical outcome (bee stings; person three, both hands stung, 1000 μg/gr cream once to one hand, about 10 minutes after sting): the swelling shrunk and the redness decreased to an identical degree on each hand
- clinical outcome (bee stings; person, 50 μg/gr cream, one application 24 hours after the sting): immediate reduction in the redness, swelling and pain
- clinical outcome (radiation burns; person two after mastectomy, severe radiation burns, 500 μg/gr cream several times per day): felt immediate relief
- clinical outcome (radiation burns; [4]): The therapeutic effect repeated itself after each treatment
- time to ease in the itching and burning sensation (radiation burns; [4]): ~1 min
- clinical outcome (mosquito bites): an immediate relief from the itching sensation was felt
- clinical outcome (itching; [5]): The rash disappeared after several hours
- time to relief from itching (itching; [5]): ≤ 10 min
- clinical outcome (itching; strong itching in lower limbs, 500 μg/gr cream as needed): immediate relief
- clinical outcome (skin infection): a decrease in redness and the size of the spots
- time until relief is felt (psoriasis; psoriasis in the anus, (500 μg/gr cream) once a day): 4 days
- clinical outcome (psoriasis; psoriasis in the anus, (500 μg/gr cream) once a day, stopped several days, repeated for 4 days): the psoriasis disappeared
- clinical outcome (psoriasis; psoriasis on hands, 500 μg/gr cream once a day): feels relief; the skin is pleasant feeling and not itchy
- improvement as believed by the patient (psoriasis; psoriasis on hands, 500 μg/gr cream once a day, over 2 weeks): 20%
- clinical outcome (psoriasis; severe psoriasis at various locations, 500 μg/gr cream): the itching ceased and the normal skin appearance returned
- clinical outcome (burns; person three, irritated skin on hand contacted a disinfectant, burn-like redness and itching, ZEP4 and ZEP3 each 500 μg/gr cream): immediate relief from the redness and itching
- clinical outcome (burns; person two, light burn on finger from boiling oil, 50 μg/gr cream applied immediately): the swelling went down until it completely disappeared
- clinical outcome (burns; person, hand burnt from an oven, 50 μg/gr cream applied immediately): the pain and redness immediately subsided
- time until burn mark disappeared (burns; person, light burn on back of hand from hot object, 50 μg/gr cream applied immediately): ≤ 1 h
- clinical outcome (burns; [6]): blisters began to appear and then shortly disappeared
- time until no sign of the burn (burns; [6]): 2 weeks
